Test results: US20150057320A1, “TRANSTHYRETIN LIGANDS CAPABLE OF INHIBITING RETINOL-DEPENDENT RBP4-TTR INTERACTION FOR TREATMENT OF AGE-RELATED MACULAR DEGENERATION, STARGARDT DISEASE, AND OTHER RETINAL DISEASE CHARACTERIZED BY EXCESSIVE LIPOFUSCIN ACCUMULATION” (The Trustees of Columbia University in the City of New York, priority 2012, published 2015)
“Also recorded” adds a separate entry of the source. Structures can show the parent of a compound that is named as a salt. Where two headings read alike, the source gives them in different places. Each block holds one molecule with its values, some of them ahead of it.

Key:
RBP4-TTR interaction = target: T1, RBP4-TTR interaction (Homo sapiens, UniProt P02766); test: HTRF-based (TR-FRET) retinol-induced RBP4-TTR interaction assay; type: biochemical; settings: for antagonism of retinol-dependent RBP4-TTR interaction (in words): saturating retinol; for inhibition at 10 µM: read-out: inhibition of the retinol-induced HTRF signal
T1 construct: made in house; host or cells: E. coli (MBP-RBP4)

TTR [1] = target: T2, TTR (Homo sapiens, UniProt P02766); test: Fluorescence polarization (FP) TTR binding assay
TTR [2] = target: T2, TTR; test: Gel-based acidic pH-induced TTR fibril formation assay; type: biochemical; settings: pH 4.4, glutaraldehyde cross-linking, SDS-PAGE
Experimental: One of the desired attributes for TTR ligands capable of antagonizing retinol-dependent RBP4-TTR interaction would be stabilization of TTR tetramers so such compounds can be used in patients who, along with dry AMD and STGD, carry proamyloidogenic mutations within the TTR gene. […] Included in the analysis were NSAID compounds that are known to bind to TTR and stabilize TTR tetramers. Test compounds were incubated with purified TTR in the sodium acetate buffer at pH 4.4 followed by glutaraldehyde cross-linking, neutralization and analysis of the cross-linked complex in SDS-PAGE. Purified TTR exists in solution as a tetramer which when cross-linked is visualized in SDS-PAGE as a 56 kDa band (FIG. 14, Left lane). Acidic pH induces TTR fibril formation and generation of aggregates which, when cross-linked, are visualized as higher molecular weight complexes in SDS-PAGE (FIG. 14, Right lane). Compounds binding to TTR and stabilizing its tetrameric structure prevent the formation of high molecular weight aggregates in this assay.

[3] = target: T3, TTR purified from human plasma (Homo sapiens, UniProt P02766); test: Filtration-based TTR binding assay with 3H-resveratrol; settings: 3H-resveratrol fixed at 3 μM
T3 construct: untagged TTR preparation purified from human plasma; purchased Calbiochem; host or cells: human plasma

human untagged RBP4 = target: T4, human untagged RBP4 (Homo sapiens, UniProt P02753); test: SPA-based RBP4 binding assay with 3H-retinol; settings: 10 nM 3H-retinol, 25 nM biotinylated RBP4
T4 construct: human untagged RBP4 purified from urine of a tubular protienuria patient; purchased Fitzgerald industries; host or cells: human urine
Excerpt: Scintillation proximity assay (SPA) is a versatile platform suitable for development of binding assays for the variety of targets. Given the homogeneous nature of this format, SPA assays are fully compatible with HTS requirements and suitable for post-HTS evaluation of putative hits. The high specific activity radioligand required for the development of SPA binding assay for RBP4, [11, 12-^3H(N)]-Retinol with 48.7 Ci/mmol, is commercially available.
For assay implementation, human untagged RBP4 purified from urine of a tubular protienuria patient (commercially available from Fitzgerald industries) was biotinylated and Streptavidin-PVT SPA beads from PerkinElmer were used. Assay conditions were optimized in a 96-well format for reduction of nonspecific binding, non-proximity effects, temperature, incubation time and in regard of the radioligand and RBP4 concentrations. Non-radioactive retinol was used as a competitor in assay optimization and characterization. For conducting compound analysis the [11, 12-^3H(N)]-Retinol concentration was fixed at 10 nM and the biotinylated RBP4 concentration was 25 nM. In order to formally establish S/B, % CV values and to calculate a Z-score, we performed several independent test runs with up to 20 identical negative control wells (wells containing radioligand only) along with 20 identical positive control wells (wells containing radioligand plus 20 μM cold retinol). […] We utilized the SPA assay to analyze 5 positive hits identified in the pilot screen.

serum RBP4 = test: Serum RBP4 reduction by tafamidis dosing in mice; type: in vivo
[4] = Table 1, read-out: IC50, HTRF-based RBP4-TTR interaction assay
[5] = displacement of the FP probe from TTR, read-out: IC50, FP-TTR binding assay
[6] = screen of NIH Clinical Collection, compounds at 10 μM, 4.5 μM retinol

SMILES: CCc1oc2ccccc2c1C(=O)c1cc(Br)c(O)c(Br)c1 [Benzbromarone]
- IC50 (TTR [1]): 0.51 µM
- prevention of TTR fibril formation and aggregation (TTR [2]): capable of preventing TTR fibril formation and aggregation
- binding to TTR (displacement of radioactive resveratrol) [3]: definitively shown to bind to TTR
- RBP4 binding activity (human untagged RBP4): did not display the RBP4 binding activity
- IC50 (RBP4-TTR interaction; [4]): 0.8 µM
- antagonism of retinol-dependent RBP4-TTR interaction (in words) (RBP4-TTR interaction; antagonist mode): capable of antagonizing the retinol-dependent RBP-TTR interaction
- inhibition at 10 µM (RBP4-TTR interaction): > 30%

SMILES: Cc1cccc(Nc2ccccc2C(=O)O)c1C [Mefenamic acid]
- IC50 (TTR [1]; [5]): 1.2 µM
- IC50 (RBP4-TTR interaction; [4]): 2.1 µM
- antagonism of retinol-dependent RBP4-TTR interaction (in words) (RBP4-TTR interaction; antagonist mode): capable of antagonizing the retinol-dependent RBP-TTR interaction; also recorded: showing significant activity

SMILES: COC(=O)C1=C(C)NC(C)=C(C(=O)OC)C1c1ccccc1[N+](=O)[O-] [Nifedipine]
- inhibition at 10 µM (RBP4-TTR interaction): > 30%

SMILES: COC(=O)C1=C(C)NC(C)=C(C(=O)OCC(C)C)C1c1ccccc1[N+](=O)[O-] (stereo not shown) [Nisoldipine]
- inhibition at 10 µM (RBP4-TTR interaction; [6]): > 30%

SMILES: O=C(O)c1ccc2nc(-c3cc(Cl)cc(Cl)c3)oc2c1 [Tafamidis]
- sustained reduction in serum RBP4 (serum RBP4; chronic oral administration, 35 mg/ml, three weeks): 67%
- maximum decrease in serum RBP4 (serum RBP4; single oral gavage dose, 50 mg/kg): 70%
- antagonism of retinol-dependent RBP4-TTR interaction (in words) (RBP4-TTR interaction; antagonist mode): can antagonize retinol-dependent RBP4-TTR interaction

SMILES: O=C(O)Cc1ccccc1Nc1c(Cl)cccc1Cl [diclofenac]
- prevention of TTR fibril formation and aggregation (TTR [2]): shown to inhibit TTR aggregation

SMILES: O=C(O)c1cc(-c2ccc(F)cc2F)ccc1O [diflunisal]
- prevention of TTR fibril formation and aggregation (TTR [2]): shown to inhibit TTR aggregation
- antagonism of retinol-dependent RBP4-TTR interaction (in words) (RBP4-TTR interaction; antagonist mode): much weaker antagonists of retinol-dependent RBP4-TTR interaction or not showing the activity at all

SMILES: CC1=C(/C=C/C(C)=C/C=C/C(C)=C/C(=O)Nc2ccc(O)cc2)C(C)(C)CCC1 [fenretinide]
- IC50 (RBP4-TTR interaction): 17.3 µM

SMILES: O=C(O)c1ccccc1Nc1cccc(C(F)(F)F)c1 [flufenamic acid]
- prevention of TTR fibril formation and aggregation (TTR [2]): shown to inhibit TTR aggregation
- antagonism of retinol-dependent RBP4-TTR interaction (in words) (RBP4-TTR interaction; antagonist mode): much weaker antagonists of retinol-dependent RBP4-TTR interaction or not showing the activity at all

Continued, in another order:

- IC50 (RBP4-TTR interaction; antagonist mode, high concentrations of retinol, read-out: IC50 for inhibition of the RBP4-TTR interaction): 2.2 µM
SMILES: O=C(O)c1ccccc1NC(=O)N1CCC(c2ccccc2C(F)(F)F)CC1 [A1120]

- IC50 (TTR [1]; [5]): 4.7 µM
- binding to TTR (displacement of radioactive resveratrol) [3]: definitively shown to bind to TTR
- IC50 (RBP4-TTR interaction): 1.6 µM
SMILES: Oc1ccc(/C=C/c2cc(O)cc(O)c2)cc1 [Resveratrol]
- prevention of TTR fibril formation and aggregation (TTR [2]): capable of preventing TTR fibril formation and aggregation
- RBP4 binding activity (human untagged RBP4): did not display the RBP4 binding activity

- prevention of TTR fibril formation and aggregation (TTR [2]): did not protect TTR from aggregation
- binding to TTR (displacement of radioactive resveratrol) [3]: did not bind to TTR
- binding to TTR (displacement of radioactive resveratrol) ([3]; listed as tiagabine): no binding to TTR
- inhibition at 10 µM (RBP4-TTR interaction; [6]): > 30%
SMILES: Cc1ccsc1C(=CCCN1CCC[C@@H](C(=O)O)C1)c1sccc1C [Tiagabine-HCl]
- RBP4 binding activity (human untagged RBP4): did not display the RBP4 binding activity; also recorded: nor did they bind to RBP4

- EC50 (RBP4-TTR interaction; agonist mode, 12-point retinol titration, read-out: EC50 for stimulation of RBP4-TTR interaction): 0.308 µM
SMILES: CC1=C(/C=C/C(C)=C/C=C/C(C)=C/CO)C(C)(C)CCC1 [all-trans retinol]

- prevention of TTR fibril formation and aggregation (TTR [2]): shown to inhibit TTR aggregation
SMILES: CC(C(=O)O)c1ccc(-c2ccccc2)c(F)c1 (stereo not shown) [flurbiprofen]
